Measured values from patent US6620828B2, “Thiazole compounds and pharmaceutical compositions for inhibiting protein kinases and methods for their use” (Agouron Pharmaceuticals, Inc., priority 1999, dated 2003).

Experiments:
Assay type in all cases: biochemical
[1] = target: T1, phosphorylated VEGF-R2Δ50 (FLVK-P) (Homo sapiens, UniProt P35968, DEL940-989/E990V); assay: VEGF-R2 coupled spectrophotometric (FLVK-P) assay; settings: read-out: VEGF % inhibition at 20 μM, 20 μM; combinatorial library compounds
T1 construct: VEGF-R2Δ50 contains residues 806-939 and 990-1171; made in house; host or cells: baculovirus/insect cells
T1 sequence (P35968 with tags, fused parts or gaps DEL940-989/E990V limits assumed): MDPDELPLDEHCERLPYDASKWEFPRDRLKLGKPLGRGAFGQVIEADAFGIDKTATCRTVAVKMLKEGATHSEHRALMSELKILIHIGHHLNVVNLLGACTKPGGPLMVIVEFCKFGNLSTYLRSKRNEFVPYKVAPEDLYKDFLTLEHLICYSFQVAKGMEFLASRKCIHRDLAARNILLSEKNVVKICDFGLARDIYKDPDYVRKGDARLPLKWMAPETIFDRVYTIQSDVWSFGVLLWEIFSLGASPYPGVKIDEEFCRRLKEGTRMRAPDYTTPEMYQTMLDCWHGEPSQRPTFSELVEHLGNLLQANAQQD
Procedure, shortened: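 Baculovirus-expressed human VEGF-R2Δ50 (residues 806-939/990-1171, E990V) was autophosphorylated with 3 mM ATP, 40 mM MgCl2 for 2 h at 4° C. ADP formation was coupled via PK/LDH to NADH oxidation, read at 340 nm, with 5.1 mM poly(E4Y1), 1 mM ATP, 25 mM MgCl2, Hepes pH 7.5. Ki came from activity across compound concentrations.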

FL-CHK1 = target: T2, FL-CHK1 (Homo sapiens, UniProt O14757); assay: CHK1 assay; settings: 20 μM; combinatorial library compounds
T2 construct: C-terminally His-tagged full-length human CHK1 (FL-CHK1); 6xHis (C); made in house; host or cells: baculovirus/insect cells
T2 sequence (O14757 1-476): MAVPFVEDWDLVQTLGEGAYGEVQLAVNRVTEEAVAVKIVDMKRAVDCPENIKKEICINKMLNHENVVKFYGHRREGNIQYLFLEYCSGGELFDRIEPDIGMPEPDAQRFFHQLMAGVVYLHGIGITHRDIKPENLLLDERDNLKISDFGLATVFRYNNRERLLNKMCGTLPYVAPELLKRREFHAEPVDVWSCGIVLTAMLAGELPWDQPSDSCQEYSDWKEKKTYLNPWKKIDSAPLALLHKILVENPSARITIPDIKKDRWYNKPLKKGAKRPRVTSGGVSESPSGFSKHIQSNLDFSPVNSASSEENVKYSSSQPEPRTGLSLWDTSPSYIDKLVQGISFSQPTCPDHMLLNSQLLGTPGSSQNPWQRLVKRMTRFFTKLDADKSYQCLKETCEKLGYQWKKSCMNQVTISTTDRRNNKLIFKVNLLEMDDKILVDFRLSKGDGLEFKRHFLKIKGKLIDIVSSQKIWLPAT
Procedure, shortened: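 Full-length human CHK1 with C-terminal 6×His tag, made in baculovirus/insect cells, 10 nM, phosphorylating 0.125 mM Syntide-2 with 0.15 mM ATP in 50 mM Tris pH 7.5, 25 mM MgCl2, 400 mM NaCl. PK/LDH-coupled NADH oxidation read at 340 nm. Ki from initial rates over varied compound concentrations.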

CDK2/Cyclin A complex = CDK2/Cyclin A complex (Homo sapiens, UniProt P24941); assay: CDK2/Cyclin A assay; settings: for inhibition at 1 µM: combinatorial library compounds
Procedure, shortened: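 Radiometric assay: 150 nM CDK2/cyclin A (insect-cell CDK2, truncated cyclin A) phosphorylates His-tagged Rb fragment (residues 386-928) with 25 μM ATP plus [32P]ATP, pH 7.4 HEPES, 2% DMSO, 30 °C for 20 min. Filter-captured product counted by phosphorimager; apparent Ki from competitive or tight-binding inhibition fits.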

CDK4/Cyclin D3 complex = target: T3, CDK4/Cyclin D3 complex (Homo sapiens, UniProt P11802); assay: CDK4/Cyclin D assay; settings: for inhibition at 1 µM: combinatorial library compounds
T3 construct: made in house; host or cells: insect cells co-infected with baculovirus vectors
T3 sequence (P11802 whole entry): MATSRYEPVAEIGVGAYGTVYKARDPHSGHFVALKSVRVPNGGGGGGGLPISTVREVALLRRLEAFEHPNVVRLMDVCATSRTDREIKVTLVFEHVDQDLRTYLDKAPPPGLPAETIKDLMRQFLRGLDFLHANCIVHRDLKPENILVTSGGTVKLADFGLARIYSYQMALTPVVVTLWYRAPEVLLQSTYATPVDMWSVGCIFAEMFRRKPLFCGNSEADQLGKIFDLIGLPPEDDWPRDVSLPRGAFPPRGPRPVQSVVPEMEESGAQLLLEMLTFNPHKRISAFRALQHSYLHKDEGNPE
T3 sequence (P30281 whole entry partner): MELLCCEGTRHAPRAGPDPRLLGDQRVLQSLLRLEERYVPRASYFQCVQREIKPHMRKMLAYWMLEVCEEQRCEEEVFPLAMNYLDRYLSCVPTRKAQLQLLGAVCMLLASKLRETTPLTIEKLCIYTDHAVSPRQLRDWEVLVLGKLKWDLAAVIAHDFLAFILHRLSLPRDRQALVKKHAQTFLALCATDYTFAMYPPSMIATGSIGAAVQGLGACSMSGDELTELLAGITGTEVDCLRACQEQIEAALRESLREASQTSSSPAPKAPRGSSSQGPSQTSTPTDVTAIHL
Protocol: CDK4/Cyclin D Construct for Assay: A complex of human CDK4 and cyclin D3, or a complex of cyclin DI and a fusion protein of human CDK4 and glutathione-S-transferase (GST-CDK4), was purified using traditional biochemical chromatographic techniques from insect cells that had been co-infected with the corresponding baculovirus expression vectors.
CDK2/Cyclin A and CDK4/Cyclin D Assays
Cyclin-dependent kinase activity was measured by quantifying the enzyme-catalyzed, time-dependent incorporation of radioactive phosphate from [^32P]ATP into a recombinant fragment of the retinoblastoma protein. Unless noted otherwise, assays were performed in 96-well plates in a total volume of 50 μL, in the presence of 10 mM HEPES (N-[2-hydroxyethyl]piperazine-N′-[2-ethanesulfonic acid]) (pH 7.4), 10 mM MgCl2, 25 μM adenosine triphosphate (ATP), 1 mg/mL ovalbumin, 5 μg/mL leupeptin, 1 mM dithiothreitol, 10 mM β-glycerophosphate, 0.1 mM sodium vanadate, 1 mM sodium fluoride, 2.5 mM ethylene glycol-bis(β-aminoethyl ether)-N,N,N′N′-tetraacetic acid (EGTA), 2% (v/v) dimethylsulfoxide, and 0.03-0.2 μCi [^32P]ATP. The substrate (0.3-0.5 μg) was purified recombinant retinoblastoma protein fragment (Rb) (residues 386-928 of the native retinoblastoma protein; 62.3 kDa, containing the majority of the phosphorylation sites found in the native 106-kDa protein, as well as a tag of six histidine residues for ease of purification). Reactions were initiated with CDK2 (150 nM CDK2/Cyclin A complex) or CDK4 (50 nM CDK4/Cyclin D3 complex), incubated at 30° C., and terminated after 20 minutes by the addition of ethylenediaminetetraacetic acid EDTA) to 250 mM. The phosphorylated substrate was then captured on a nitrocellulose membrane using a 96-well filtration manifold, and unincorporated radioactivity was removed by repeated washing with 0.85% phosphoric acid. Radioactivity was quantified by exposing the dried nitrocellulose membranes to a phosphorimager. Apparent Ki values were measured by assaying enzyme activity in the presence of different compound concentrations and subtracting the background radioactivity measured in the absence of enzyme. The kinetic parameters (kcat, Km for ATP) were measured for each enzyme under the usual assay conditions by determining the dependence of initial rates on ATP concentration. The data were fit to an equation for competitive inhibition using Kaleidagraph (Synergy Software), or were fit to an equation for competitive tight-binding inhibition using the software KineTic (BioKin, Ltd.). Measured Ki values for known inhibitors against CDK4 and CDK2 agreed with published IC50 values. The specific activity of CDK4 was the same whether complexed to full-length cyclin D3 or the truncated Cyclin D3 construct; both complexes also yielded very similar Ki values for selected inhibitors.

Row | SMILES | inhibition at 20 µM [1] | inhibition at 20 µM (FL-CHK1) | inhibition at 1 µM (CDK2/Cyclin A complex) | inhibition at 1 µM (CDK4/Cyclin D3 complex) | Ki (CDK2/Cyclin A complex; Table 2) | Ki (CDK4/Cyclin D3 complex; Table 2) | Ki (CDK2/Cyclin A complex; Table 3) | Ki (CDK4/Cyclin D3 complex; Table 3)
1 | Nc1nc(Nc2ccc(S(N)(=O)=O)cc2)sc1-c1nc(-c2cc(Br)c(Cl)s2)cs1 | 6% | 7.9% | 60.5% | 56.4% |  |  |  | 
2 | Nc1nc(Nc2ccc(S(N)(=O)=O)cc2)sc1-c1nc(-c2ccc(Cl)c([N+](=O)[O-])c2)cs1 | -2% | 13.1% | 17.6% | -28.2% |  |  |  | 
3 | Nc1nc(Nc2ccc(S(N)(=O)=O)cc2)sc1-c1nc(-c2ccc(-c3ccc(Cl)cc3Cl)o2)cs1 | -2% | 3.3% | 21.4% | 25% |  |  |  | 
4 | COc1ccc(-c2csc(-c3sc(Nc4ccc(S(N)(=O)=O)cc4)nc3N)n2)c(OC)c1 | 3% | -3.9% | 12.5% | -1.2% |  |  |  | 
5 | Nc1nc(Nc2ccc(S(N)(=O)=O)cc2)sc1-c1nc(-c2ccc(Cl)cc2)cs1 | 27% | 4.4% | 18.5% | 10.9% |  |  |  | 
6 | COc1ccc(OC)c(-c2csc(-c3sc(Nc4ccc(S(N)(=O)=O)cc4)nc3N)n2)c1 | 8% | -2.3% | 28.4% | 41.2% |  |  |  | 
7 | CCOC(=O)c1cc(-c2csc(-c3sc(Nc4ccc(S(N)(=O)=O)cc4)nc3N)n2)on1 | 3% | 1.1% | 29.8% | -13% |  |  |  | 
8 | Nc1nc(Nc2ccc(S(N)(=O)=O)cc2)sc1-c1nc(-c2ccccc2[N+](=O)[O-])cs1 | 47% | 25.6% | 55.4% | 57.8% |  |  |  | 
9 | Nc1nc(Nc2ccc(S(N)(=O)=O)cc2)sc1-c1nc(-c2ccc([N+](=O)[O-])cc2)cs1 | 3% | 11% | 27.7% | -16.3% |  |  |  | 
10 | Cc1cc(-c2csc(-c3sc(Nc4ccc(S(N)(=O)=O)cc4)nc3N)n2)ccc1Cl | 2% | 15.9% | 8.3% | -28% |  |  |  | 
11 | N#Cc1ccc(-c2nc(-c3sc(Nc4ccc(S(N)(=O)=O)cc4)nc3N)cs2)cc1 | 13% | 3.7% | 13.3% | 16.3% |  |  |  | 
12 | Cc1onc(-c2ccccc2)c1-c1csc(-c2sc(Nc3ccc(S(N)(=O)=O)cc3)nc2N)n1 | -2% | 2.9% | -4.5% | -3.9% |  |  |  | 
13 | Nc1nc(Nc2ccc(S(N)(=O)=O)cc2)sc1-c1nc(-c2ccc3c(c2)OCCO3)cs1 | 29% | 20.1% | 21.4% | 31.8% |  |  |  | 
14 | COc1cccc(-c2csc(-c3sc(Nc4ccc(S(N)(=O)=O)cc4)nc3N)n2)c1 | 23% | 15.2% | 5.9% | -4.2% |  |  |  | 
15 | CCOC(=O)c1ccccc1-c1csc(-c2sc(Nc3ccc(S(N)(=O)=O)cc3)nc2N)n1 | 9% | 11.4% | 52.6% | 53.3% |  |  |  | 
16 | Cc1c(C)c(C)c(-c2csc(-c3sc(Nc4ccc(S(N)(=O)=O)cc4)nc3N)n2)c(C)c1C | 33% | 29% | 77.2% | 64.1% |  |  |  | 
17 | Nc1nc(Nc2ccc(S(N)(=O)=O)cc2)sc1-c1nc(-c2cc(-c3ccccc3)no2)cs1 | -1% | -1.2% | 12% | -0.5% |  |  |  | 
18 | Nc1nc(Nc2ccc(S(N)(=O)=O)cc2)sc1-c1nc(-c2cc(-c3ccc(Cl)c(Cl)c3)no2)cs1 | -5% | 0.5% | 16.1% | -31.3% |  |  |  | 
19 | CCCCCc1ccc(-c2csc(-c3sc(Nc4ccc(S(N)(=O)=O)cc4)nc3N)n2)cc1 |  | 10.8% | -9.9% | -7.2% |  |  |  | 
20 | CC(=O)Oc1ccccc1-c1csc(-c2sc(Nc3ccc(S(N)(=O)=O)cc3)nc2N)n1 | 33% | -7.3% | 25.4% | -4.8% |  |  |  | 
21 | Nc1nc(Nc2ccc(S(N)(=O)=O)cc2)sc1-c1nc(-c2c(Cl)cc(C(F)(F)F)cc2Cl)cs1 | 9% | 21.7% | 53.9% | 58% |  |  |  | 
22 | CCN(CC)c1ccc(-c2csc(-c3sc(Nc4ccc(S(N)(=O)=O)cc4)nc3N)n2)cc1 | 10% | 6.1% | 34.8% | 29.3% |  |  |  | 
23 | Nc1nc(Nc2ccc(S(N)(=O)=O)cc2)sc1-c1nc(-c2csc3ccccc23)cs1 | 10% | 0.4% | 48.9% | 44.1% |  |  |  | 
24 | Cn1cc(-c2csc(-c3sc(Nc4ccc(S(N)(=O)=O)cc4)nc3N)n2)cc1C(=O)C(Cl)(Cl)Cl | -4% | 3.3% | 23.2% | 14% |  |  |  | 
25 | Nc1nc(Nc2ccc(S(N)(=O)=O)cc2)sc1-c1nc(-c2cc3cc(Cl)ccc3o2)cs1 | -4% | 13.6% | 16.6% | -15% |  |  |  | 
26 | Nc1nc(Nc2ccc(S(N)(=O)=O)cc2)sc1-c1nc(-c2cccc(Br)c2)cs1 | 15% | 16.4% | 17.6% | -0.3% |  |  |  | 
27 | Nc1csc(-c2sc(Nc3ccc(S(N)(=O)=O)cc3)nc2N)n1 [H(6), 4-(4,4′-Diamino-[2,5′]bithiazolyl-2′-ylamino)-benzenesulfonamide] |  |  |  |  | 200 nM | 1200 nM |  | 
28 | CN(C)CCNC(=O)c1csc(-c2sc(Nc3ccc(S(N)(=O)=O)cc3)nc2N)n1 [N(2), 4-Amino-2′-(4-sulfamoyl-phenylamino)-[2,5′]-bithiazoyl-4-carboxylic acid (2-dimethylamino-ethyl)-amide] |  |  |  |  |  |  | 120 nM | 1300 nM
29 | Nc1nc(Nc2ccc(S(N)(=O)=O)cc2)sc1-c1nc(C(=O)Nc2ccccc2)cs1 [N(4), 4′-Amino-2′-(4-sulfamoyl-phenylamino)-[2,5′]bithiazolyl-4 carboxylic acid phenylamide] |  |  |  |  |  |  | 158 nM | 480 nM
